We go through eight compounds from ChEMBL document CHEMBL1150168, “Scabrolides A-D, four new norditerpenoids isolated from the soft coral Sinularia scabra” (2002).

The subject of assay [1] is KB. Description: Cytotoxicity against human KB cells by MTT assay. The class given is functional. To be noted: read-out: ED50 (the source's name).
Assay [2] is described as follows: Cytotoxicity against human HEPA 59T/VGH cells by MTT assay. The note with it: read-out: ED50 (the source's name). The class given is functional. In general terms: Formazan colour is commonly taken as a measure of viable cells.

Converted amounts (≈) assume the structure as drawn. Where only a bound is given, the exact number is not on record here.

On to `C=C(C)[C@@H]1CC(=O)[C@H]2[C@H](C1)[C@@H]1C(=O)O[C@@H]3C[C@@]4(C)O[C@@H]2C(=O)[C@@H]4[C@H]13`, for which the EC50 in assay [1] and in assay [2] was greater than 20 µg/mL throughout.

Take `C=C(C)[C@H]1C/C=C2\C(=O)O[C@H](C[C@@]3(C)CC(=O)[C@@H](CC(=O)C1)O3)[C@H]2O`: the EC50 in assay [1] came out at 2.3 µg/mL (≈ 6.6 µM); in assay [2], 2.4 µg/mL (≈ 6.89 µM).

Regarding `C=C(C)[C@H]1C/C=C2\C(=O)O[C@H](C[C@@]3(C)CC(=O)[C@@H](CC(=O)C1)O3)[C@@H]2O`, the EC50 in assay [1] was 2.5 µg/mL (≈ 7.18 µM); in assay [2], 2.6 µg/mL (≈ 7.46 µM).

With `COc1cccc2c1C(=O)c1c(O)c3c(c(O)c1C2=O)C[C@@](O)(C(=O)CO)C[C@@H]3O[C@H]1C[C@H](N)[C@H](O)[C@H](C)O1` [DOXORUBICIN], the EC50 in assay [1] and in assay [2] was 0.3 µg/mL (≈ 0.552 µM) in each case.

Turning to `C=C(C)[C@H]1C/C=C(\C(=O)OC)CC(=O)C[C@@]2(C)CC(=O)[C@@H](CC(=O)C1)O2` [NORCEMBRENE 5], the EC50 was greater than 20 µg/mL in assay [1] and 17.5 µg/mL (≈ 48.3 µM) in assay [2].

For `C=C(C)[C@@H]1CC(=O)CC2=C(C1)[C@@H]1C(=O)O[C@@H]3C[C@](C)(O)[C@H](C2=O)[C@H]13` [SCABROLIDE A], the EC50 in assay [1] and in assay [2] was greater than 20 µg/mL each time.

On to `C=C(C)[C@@H]1CC(=O)C[C@@H]2O[C@](C)(CC2=O)C[C@@H]2C=C(C(=O)O2)[C@@H](OC)C1` [SCABROLIDE C], for which the results for the EC50 in assay [1] and in assay [2] were 11.9 µg/mL (≈ 32.8 µM) and 17.8 µg/mL (≈ 49.1 µM), respectively.

As for `C=C(C)[C@H]1CC[C@]23O[C@H]2[C@@H](C[C@@]2(C)CC(=O)[C@H](CC(=O)C1)O2)OC3=O` [SCABROLIDE D], the EC50 in assay [1] and in assay [2] was greater than 20 µg/mL each time.
